{"source": "patent US11369655B2", "about": "“Healthful supplements” (priority 2015, dated 2022)", "key": {"[1]": {"target": "peripheral cannabinoid receptor type 2 (CB2) (Homo sapiens, UniProt P34972)", "sequence (P34972 whole entry, species assumed)": "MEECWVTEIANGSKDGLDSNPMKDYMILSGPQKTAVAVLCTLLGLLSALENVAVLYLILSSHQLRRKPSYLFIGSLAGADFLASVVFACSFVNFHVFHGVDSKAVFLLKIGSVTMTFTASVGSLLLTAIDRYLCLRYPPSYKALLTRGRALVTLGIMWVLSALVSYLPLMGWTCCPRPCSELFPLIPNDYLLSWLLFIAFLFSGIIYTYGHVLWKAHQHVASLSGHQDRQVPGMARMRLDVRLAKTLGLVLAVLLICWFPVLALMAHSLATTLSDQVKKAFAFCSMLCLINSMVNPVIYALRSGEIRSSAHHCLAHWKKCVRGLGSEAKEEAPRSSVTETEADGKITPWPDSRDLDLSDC", "conditions": "cited from earlier work"}, "[2]": {"target": "cannabinoid receptor type 1 (CB1) (Homo sapiens, UniProt P21554)", "sequence (P21554 whole entry, species assumed)": "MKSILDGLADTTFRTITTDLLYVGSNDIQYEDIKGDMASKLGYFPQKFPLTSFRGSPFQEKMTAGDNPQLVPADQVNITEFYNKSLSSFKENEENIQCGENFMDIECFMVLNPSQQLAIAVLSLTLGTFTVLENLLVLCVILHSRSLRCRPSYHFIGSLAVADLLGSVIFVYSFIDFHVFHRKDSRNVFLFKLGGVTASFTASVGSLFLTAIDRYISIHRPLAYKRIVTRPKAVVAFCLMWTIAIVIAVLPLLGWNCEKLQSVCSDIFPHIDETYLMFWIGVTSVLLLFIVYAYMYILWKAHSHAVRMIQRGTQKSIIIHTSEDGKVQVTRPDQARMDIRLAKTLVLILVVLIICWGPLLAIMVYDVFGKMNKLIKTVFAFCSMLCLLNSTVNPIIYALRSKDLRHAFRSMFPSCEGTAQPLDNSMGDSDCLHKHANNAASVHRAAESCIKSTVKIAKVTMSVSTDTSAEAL", "conditions": "cited from earlier work"}, "[3]": {"conditions": "crystalline form at −20° C.; cited from earlier work"}, "[4]": {"conditions": "cited from earlier work"}, "[5]": {"experiment": "Acute oral toxicity (LD50) in rats", "format": "in vivo, rat"}, "[6]": {"conditions": "cited from earlier work", "remark": "listed apart in the source"}, "[7]": {"conditions": "vapor phase, estimated, cited from earlier work"}}, "data": [{"smiles": "CCCCCC(C)(C)c1ccc([C@H]2CCC[C@@H](O)C2)c(O)c1", "note": "(relative stereo) [cp 47,497-C6-homolog, cis-5-(1,1 dimethylhexyl)-2-(3-hydroxycyclohexyl)-phenol]", "values": [{"measurement": "affinity for CB2", "setting": "[1]", "result": "has affinity"}, {"measurement": "affinity for CB1", "setting": "[2]", "result": "has affinity"}, {"measurement": "long term storage stability", "setting": "[3]", "result": "stable for at least two years"}, {"measurement": "solubility in DMF", "setting": "[4]; DMF", "result": "approximately 10 mg/ml"}, {"measurement": "solubility in DMSO", "setting": "[4]; DMSO", "result": "~15", "unit": "mg/mL"}, {"measurement": "solubility in aqueous solutions", "setting": "[4]; aqueous solutions", "result": "sparingly soluble"}, {"measurement": "solubility in ethanol", "setting": "[4]; ethanol", "result": "approximately 10 mg/ml"}, {"measurement": "solubility in methanol", "setting": "[4]; methanol", "result": "approximately 12.5 mg/ml"}]}, {"smiles": "OCC(O)CO", "note": "[Vegetable glycerin, glycerol]", "values": [{"measurement": "LD50 oral rat dosage converted per pound", "setting": "[5]; conversion of the rat oral LD50", "result": "approximately 5.7 grams per pound of body weight"}, {"measurement": "LD50 oral rat dosage converted for a 180 pound male", "setting": "[5]; for a 180 pound male", "result": 36, "unit": "ounces"}, {"measurement": "LD50 oral rat dosage", "setting": "[6]; MSDS", "result": "12,600 milligrams per kilogram of body weight"}]}, {"smiles": "CCO", "note": "[ethyl (grain) alcohol]", "values": [{"measurement": "acute oral toxicity (LD50) in rats", "setting": "[6]; rat", "result": "about 7060 mg/kg"}]}, {"smiles": "C=CC(=C)CCC=C(C)C", "note": "[myrcene, beta-myrcene]", "values": [{"measurement": "half-life in air, reaction with nitrate radicals", "setting": "[7]; nitrate radicals", "result": 4, "unit": "min"}, {"measurement": "half-life in air, reaction with ozone", "setting": "[7]; ozone", "result": 34, "unit": "min"}, {"measurement": "half-life in air, reaction with hydroxyl radicals", "setting": "[7]; photochemically-produced hydroxyl radicals", "result": 108, "unit": "min"}]}]}
